In patent US11149031B2, “Substituted N-(3-fluoropropyl)-pyrrolidine compounds, processes for their preparation and therapeutic uses thereof” (SANOFI, priority 2016, dated 2021):
Read-outs that look alike come from different tables or passages of the source.

Tests used:
ERα in MCF7 cells = ERα in MCF7 cells (Homo sapiens (Human), UniProt P03372); assay: Test C: estrogen receptor degradation activity, ERα in cell western assay in MCF7 cells; format: cell-based; settings: for DC50: 4 hours post compound addition, ERα in cell western, read-out: Degradation IC50; for % Degradation at 3 μM: 4 hours, relative to fulvestrant
How it was run: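 Steps: seed MCF7 in phenol red-free medium containing 5% charcoal-dextran stripped FBS; next day add compound, final 3–0.000018 μM; after 4 h fix with 5% formalin plus 0.1% Triton; stain ERα overnight, then secondary at 37 °C for 60 min with Syto-64 at 2 μM; scan green and red intensities.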

[1] = biological target: His6-ERα298-554 Y537S mutant (ERα ligand-binding domain) (Homo sapiens (Human), UniProt P03372, Y537S); assay: Test A: biochemical antagonist activity, LanthaScreen TR-FRET ERα coactivator assay, Y537S mutant; settings: read-out: Antagonism Y537S IC50
How it was run: (§1)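 His6-ERα LBD (aa 298–554), 0.5 nM, with Tb-anti-His6 antibody, 250 nM PGC1a peptide and 3 nM (or 10 nM) estradiol in pH 7.4 potassium phosphate/DTT buffer; incubated with compound overnight at room temperature. IC50 from 4-parameter logistic fit of TR-FRET 520:495 nm ratio.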

[2] = biological target: His6-ERα298-554 D538G mutant (ERα ligand-binding domain) (Homo sapiens (Human), UniProt P03372, D538G); assay: Test A: biochemical antagonist activity, LanthaScreen TR-FRET ERα coactivator assay, D538G mutant; settings: read-out: Antagonism D538G IC50
How it was run: as §1

[3] = system: MCF7 cells expressing mutant estrogen receptor Tyr 537 Ser; assay: Test B: cell proliferation/viability assay (CellTiter-Glo) on MCF7 Tyr 537 Ser mutant; format: cell-based; settings: Homo sapiens, MCF7, 168 h, MCF7 cells expressing ER Tyr 537 Ser mutant, 7 days of compound exposure, read-out: proliferation MCF7 Y537S IC50
How it was run: (§2)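 Compound exposure lasted 7 days (3-0.000001 μM final, 9 points) in phenol red-free MEM with 5% charcoal dextran-stripped FBS. The mutant lines grew without estradiol. Luminescent signal, minus medium-only background, was expressed as percent of untreated cells.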

[4] = biological target: His6-ERα298-554 WT (ERα ligand-binding domain) (Homo sapiens (Human), UniProt P03372); assay: Test A: biochemical antagonist activity, LanthaScreen TR-FRET ERα coactivator assay, WT; settings: read-out: Antagonism WT IC50
How it was run: as §1

[5] = system: MCF7 cells expressing mutant estrogen receptor Asp 538 Gly; assay: Test B: cell proliferation/viability assay (CellTiter-Glo) on MCF7 Asp 538 Gly mutant; format: cell-based; settings: Homo sapiens, MCF7, 168 h, MCF7 cells expressing ER Asp 538 Gly mutant, 7 days of compound exposure, read-out: proliferation MCF7 D538G IC50
How it was run: as §2

[6] = system: MCF7 cells (breast tumor cells) WT; assay: Test B: cell proliferation/viability assay (CellTiter-Glo) on MCF7 WT; format: cell-based; settings: Homo sapiens, MCF7, 168 h, 7 days of compound exposure
How it was run: as §2

[7] = asterisk (*): protocol using 10 nM estradiol

Chain of His6-ERα298-554 D538G mutant (ERα ligand-binding domain) (P03372 298-554 D538G): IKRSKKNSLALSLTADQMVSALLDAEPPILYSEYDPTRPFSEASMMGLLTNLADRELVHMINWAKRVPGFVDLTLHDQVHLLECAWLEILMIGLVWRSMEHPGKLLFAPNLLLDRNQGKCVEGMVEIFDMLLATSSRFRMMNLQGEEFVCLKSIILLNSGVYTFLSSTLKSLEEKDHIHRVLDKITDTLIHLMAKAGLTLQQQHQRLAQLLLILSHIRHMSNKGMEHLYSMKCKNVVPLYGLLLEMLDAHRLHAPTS
Chain of His6-ERα298-554 Y537S mutant (ERα ligand-binding domain) (P03372 298-554 Y537S): as the sequence (P03372 298-554 D538G) above, with Y240S, G241D counted along it
Chain of His6-ERα298-554 WT (ERα ligand-binding domain) (P03372 298-554): as the sequence (P03372 298-554 D538G) above, with G241D counted along it
Chain of ERα in MCF7 cells (P03372 whole entry): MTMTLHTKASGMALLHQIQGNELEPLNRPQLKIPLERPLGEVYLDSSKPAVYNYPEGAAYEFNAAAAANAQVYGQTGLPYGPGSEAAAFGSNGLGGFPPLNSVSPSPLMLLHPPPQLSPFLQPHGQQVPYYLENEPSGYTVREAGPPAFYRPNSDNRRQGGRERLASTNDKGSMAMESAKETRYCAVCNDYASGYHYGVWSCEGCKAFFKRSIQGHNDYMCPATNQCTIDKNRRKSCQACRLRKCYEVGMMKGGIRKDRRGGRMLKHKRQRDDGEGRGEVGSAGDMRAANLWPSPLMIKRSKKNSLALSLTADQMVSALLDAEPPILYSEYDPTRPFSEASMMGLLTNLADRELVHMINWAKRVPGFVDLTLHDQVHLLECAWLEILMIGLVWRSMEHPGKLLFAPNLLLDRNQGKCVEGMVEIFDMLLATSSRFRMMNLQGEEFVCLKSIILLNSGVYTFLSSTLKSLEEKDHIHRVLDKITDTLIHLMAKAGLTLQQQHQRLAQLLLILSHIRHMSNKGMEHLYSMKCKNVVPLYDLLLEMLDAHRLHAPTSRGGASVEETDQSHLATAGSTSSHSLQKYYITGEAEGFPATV

Structure (SMILES)	DC50 (ERα in MCF7 cells) [nM]	% Degradation at 3 μM (ERα in MCF7 cells) [%]	IC50 ([1]; protocol with 3 nM estradiol) [nM]	IC50 ([2]; protocol with 3 nM estradiol) [nM]	IC50 [3] [nM]	IC50 ([4]; protocol with 3 nM estradiol) [nM]	IC50 [5] [nM]	IC50 [6] [nM]	IC50 [1, 7] [nM]	IC50 [2, 7] [nM]	IC50 [4, 7] [nM]
Oc1ccc2c(c1)SCCC(c1ccc(OC(F)F)c(F)c1)=C2c1ccc(O[C@H]2CCN(CCCF)C2)cc1 [Example 191, 4-[4-(difluoromethoxy)-3-fluoro-phenyl]-5-[4-[(3S)-1-(3-fluoropropyl)pyrrolidin-3-yl]oxyphenyl]-2,3-dihydro-1-benzothiepin-8-ol]	0.2	95	32	51	3	3	0.4	0.3			
Cc1ccc(C2=C(c3ccc(O[C@H]4CCN(CCCF)C4)cc3)c3ccc(O)cc3SCC2)c(F)n1 [Example 192, 4-(2-fluoro-6-methyl-3-pyridyl)-5-[4-[(3S)-1-(3-fluoropropyl)pyrrolidin-3-yl]oxyphenyl]-2,3-dihydro-1-benzothiepin-8-ol]	0.4	91			5		0.9	0.3	109	205	9
Oc1ccc2c(c1)SCCC(c1ccc3c(c1)OC(F)(F)O3)=C2c1ccc(O[C@H]2CCN(CCCF)C2)cc1 [Example 193, 4-(2,2-difluoro-1,3-benzodioxol-5-yl)-5-[4-[(3S)-1-(3-fluoropropyl)pyrrolidin-3-yl]oxyphenyl]-2,3-dihydro-1-benzothiepin-8-ol]	0.2	91			5		0.5	0.3	20	25	1
CS(=O)(=O)c1ccc(C2=C(c3ccc(O[C@H]4CCN(CCCF)C4)cc3)c3ccc(O)cc3SCC2)cc1 [Example 194, 5-[4-[(3S)-1-(3-fluoropropyl)pyrrolidin-3-yl]oxyphenyl]-4-(4-methylsulfonylphenyl)-2,3-dihydro-1-benzothiepin-8-ol]	0.2	89			3		0.4	0.2	141	206	10
CCOc1cc(C2=C(c3ccc(O[C@H]4CCN(CCCF)C4)cc3)c3ccc(O)cc3SCC2)ccc1F [Example 195, 4-(3-ethoxy-4-fluoro-phenyl)-5-[4-[(3S)-1-(3-fluoropropyl)pyrrolidin-3-yl]oxyphenyl]-2,3-dihydro-1-benzothiepin-8-ol]	0.4	97			3		0.7	0.3	170	335	14
CCOc1ccc(C2=C(c3ccc(O[C@H]4CCN(CCCF)C4)cc3)c3ccc(O)cc3SCC2)c(F)c1 [Example 196, 4-(4-ethoxy-2-fluoro-phenyl)-5-[4-[(3S)-1-(3-fluoropropyl)pyrrolidin-3-yl]oxyphenyl]-2,3-dihydro-1-benzothiepin-8-ol]	0.3	93			6		1	0.4	36	63	3
CC1Cc2cc(C3=C(c4ccc(O[C@H]5CCN(CCCF)C5)cc4)c4ccc(O)cc4SCC3)ccc2O1 (stereo partly drawn) [Example 197, 5-[4-[(3S)-1-(3-fluoropropyl)pyrrolidin-3-yl]oxyphenyl]-4-(2-methyl-2,3-dihydrobenzofuran-5-yl)-2,3-dihydro-1-benzothiepin-8-ol]	0.2	88			5		0.6	0.3	13	20	1
CC1(C)Cc2cc(C3=C(c4ccc(O[C@H]5CCN(CCCF)C5)cc4)c4ccc(O)cc4SCC3)ccc2N1 [Example 198, 4-(2,2-dimethylindolin-5-yl)-5-[4-[(3S)-1-(3-fluoropropyl)pyrrolidin-3-yl]oxyphenyl]-2,3-dihydro-1-benzothiepin-8-ol]	0.2	87	6	8	6	1	1	0.4			
CONC(=O)c1cc(C2=C(c3ccc(O[C@H]4CCN(CCCF)C4)cc3)c3ccc(O)cc3SCC2)ccc1F [Example 199, 2-fluoro-5-[5-[4-[(3S)-1-(3-fluoropropyl)pyrrolidin-3-yl]oxyphenyl]-8-hydroxy-2,3-dihydro-1-benzothiepin-4-yl]-N-methoxy-benzamide]	0.4	94			4		0.2	0.2	316	456	21
CCNc1ccc(C2=C(c3ccc(O[C@H]4CCN(CCCF)C4)cc3)c3ccc(O)cc3SCC2)c(F)c1 [Example 200, 4-[4-(ethylamino)-2-fluoro-phenyl]-5-[4-[(3S)-1-(3-fluoropropyl)pyrrolidin-3-yl]oxyphenyl]-2,3-dihydro-1-benzothiepin-8-ol]	0.5	91			12		2	0.7	33	51	3
CC1(C)Cc2cc(C3=C(c4ccc(O[C@H]5CCN(CCCF)C5)cc4)c4ccc(O)cc4SCC3)ccc2O1 [Example 201, 4-(2,2-dimethyl-3H-benzofuran-5-yl)-5-[4-[(3S)-1-(3-fluoropropyl)pyrrolidin-3-yl]oxyphenyl]-2,3-dihydro-1-benzothiepin-8-ol]	0.8	85			8		1	0.2	15	21	1
C[C@@H]1Cc2cc(C3=C(c4ccc(O[C@H]5CCN(CCCF)C5)cc4)c4ccc(O)cc4SCC3)ccc2O1 [Example 202, 5-[4-[(3S)-1-(3-fluoropropyl)pyrrolidin-3-yl]oxyphenyl]-4-[(2R)-2-methyl-2,3-dihydrobenzofuran-5-yl]-2,3-dihydro-1-benzothiepin-8-ol]	0.5	89			6		1	0.4	11	15	1
C[C@H]1Cc2cc(C3=C(c4ccc(O[C@H]5CCN(CCCF)C5)cc4)c4ccc(O)cc4SCC3)ccc2O1 [Example 204, 5-[4-[(3S)-1-(3-fluoropropyl)pyrrolidin-3-yl]oxyphenyl]-4-[(2S)-2-methyl-2,3-dihydrobenzofuran-5-yl]-2,3-dihydro-1-benzothiepin-8-ol]	0.6	88			5		0.8	0.4	15	24	24
Cc1ccc(C2=C(c3ccc(O[C@H]4CCN(CCCF)C4)nc3)c3ccc(O)cc3SCC2)c(Cl)c1 [Example 206, 4-(2-chloro-4-methyl-phenyl)-5-[6-[(3S)-1-(3-fluoropropyl)pyrrolidin-3-yl]oxy-3-pyridyl]-2,3-dihydro-1-benzothiepin-8-ol]	0.4	85			4		0.7	0.3	9	13	0.7
Oc1ccc2c(c1)SCCC(c1ccc(OC(F)F)c(F)c1)=C2c1ccc(O[C@H]2CCN(CCCF)C2)nc1 [Example 207, 4-[4-(difluoromethoxy)-3-fluoro-phenyl]-5-[6-[(3S)-1-(3-fluoropropyl)pyrrolidin-3-yl]oxy-3-pyridyl]-2,3-dihydro-1-benzothiepin-8-ol]	0.5	85			2		0.3	0.1	6	9	2
CCOc1ccc(C2=C(c3ccc(O[C@H]4CCN(CCCF)C4)nc3)c3ccc(O)cc3SCC2)c(F)n1 [Example 208, 4-(6-ethoxy-2-fluoro-3-pyridyl)-5-[6-[(3S)-1-(3-fluoropropyl)pyrrolidin-3-yl]oxy-3-pyridyl]-2,3-dihydro-1-benzothiepin-8-ol]	0.4	86			4		0.7	0.2	5	7	0.6
